# Values joined by “and” are separate entries in the source; they are usually repeats but may differ in a detail not shown here. Equal entries are not always repeated. Where two headings read alike, the source gives them in different places.
# Experiments:
# [1] = HFrEF study Part 2 (MAD Cohorts A-D): plasma pharmacokinetics; type: in vivo, human; conditions: for Plasma concentration, Mean / Plasma concentration, Median: MAD cohorts; for AUC / Cmax / half-life: human, plasma, oral; for half-life: read-out: t1/2, λz (converted)
# Text: This was a randomized, parallel-group, DB, placebo-controlled, adaptive design, sequential ascending (oral) multiple-close study in stable patients with heart failure. Four MAD Cohorts (A, B, C, D) were enrolled (FIG. 5B). An SRC reviewed results from each cohort and determined the close and confirmed initial sample size for the subsequent cohort. Additionally, the first 3 patients in each cohort had LVEF≥25%; the SRC reviewed preliminary safety data from these patients and decided whether to open cohort enrollment to patients with LVEF<25%.
# After Screening and qualification, patients were confined to a clinical testing facility from Day 1 (Check-in) to Day 11. Each patient initially received placebo BID for 2 days (Days 1 and 2) in single-blinded manner (“run-in” during acclimatization to confinement in the Clinical Testing Unit) prior to receiving the randomized DB study drug treatment on Day 3. All patients then received either placebo or active Compound I for 7 days (Days 3 through 9), with a follow-up period with patients discharged from the unit on Day 11. A final follow-up clinic visit was conducted on Day 16. More than one patient could be closed in a cohort at the same time or during the same week depending on administrative issues, i.e., capacity and scheduling.
# Patients were closed twice daily (every 12 hours). Doses could occur±2 hours from scheduled dosing times as long as closes were separated by at least 10 hours and by no more than 14 hours. The exception to the twice daily dosing was on Day 9 (last dose of randomized DB study drug treatment). On Day 9, a single morning close was administered.
# During the study, multiple evaluations were performed that included: serial TTE assessments (11-14 TTEs per patient on Days 1, 2, 3, 4, 7, 9, 10 and 11); PK sampling (PK sample collected concomitantly with every post-randomization echocardiogram); ECGs (on Days 2, 3, 4, 7, 9, 10, 11 and 16); troponin (collected concomitantly with every post-randomization ECG); and safety laboratory assessments. Confined patients underwent continuous telemetry. Holter monitoring was performed in all patients at baseline (Days 1-2) and at the end of double-blind treatment (Days 7-9). Vital signs were collected daily.
# Study medication consisted of Compound I 5 mg tablets, 25 mg tablets, 100 mg tablets, or matching placebo tablets. In Part 1 (SAD), Compound I or placebo was administered after an overnight fast (at least 6 hours), while in Part 2 (MAD), Compound I was administered after a 2 hour fast (Cohort A) or with food (Cohorts B, C, and D). The close was ingested with a minimum of 240 mL of water, but more water was ingested as needed. The entire close was administered over a period of up to 15 minutes. The time of close used to determine future assessments was the time the last tablet was taken. In the cohorts for Part 2 (MAD), a BID regimen was used.
# In Part 2 (MAD), Cohort A patients fasted for 2 hours before and 2 hours after dosing. For example, if morning dosing occurred at 8 AM, patients could have a snack at 6 AM and a full breakfast at 10 AM. If afternoon dosing occurred at 8 PM, patients could have dinner at 6 PM and a snack at 10 PM. […] Cohort B, C, and D patients ingested food with each close.
# [2] = Unbound (free) fraction in plasma; type: in vitro ADME
# [3] = MAD Cohort C, 75 mg BID (with food), individual subjects
# [4] = MAD Cohort D, 100 mg BID (with food), Mean
# [5] = plasma concentration group 2000-<3500 ng/mL (n = 26)
# [6] = plasma concentration group <2000 ng/mL (n = 30)
# [7] = plasma concentration group ≥3500 ng/mL (n = 13)
smiles,measurement,setting,value
"Cn1cc(S(=O)(=O)[C@@](C)(F)C2CCN(C(=O)Nc3ccon3)CC2)c(C(F)F)n1 [Compound I, (R)-4-(1-((3-(difluoromethyl)-1-methyl-1H-pyrazol-4-yl)sulfonyl)-1-fluoroethyl)-N-(isoxazol-3-yl)piperidine-1-carboxamide]","Cmin, SS",[1]; [3],1740 ng/mL and 954 ng/mL and 2660 ng/mL and 3240 ng/mL and 3910 ng/mL and 2530 ng/mL and 2440 ng/mL and 3930 ng/mL and 3900 ng/mL
same,"t1/2, λz",[1]; [3],13.55 h and 15.34 h and 20.46 h and 23.11 h and 41.54 h and 15.67 h and 13.72 h and 30.37 h and 24.06 h
same,AUC_TAU,"[1]; MAD Cohort C, 75 mg BID (with food), steady state, individual subjects",32340 ng·h/mL and 15700 ng·h/mL and 37520 ng·h/mL and 44850 ng·h/mL and 53180 ng·h/mL and 35560 ng·h/mL and 38470 ng·h/mL and 51200 ng·h/mL and 53690 ng·h/mL
same,Accumulation Ratio AUC tau,[1]; [4],4.65
same,Accumulation Ratio Cmax,[1]; [4],3.89
same,Accumulation_Index,[1]; [4],3.30
same,"Cavg, ss",[1]; [4],5030 ng/mL
same,"Cmin, SS",[1]; [4],4333 ng/mL
same,"Plasma concentration, Mean",[1]; [5],2716 ng/mL
same,"Plasma concentration, Median",[1]; [5],2740 ng/mL
same,"Plasma concentration, Mean",[1]; [6],1169 ng/mL
same,"Plasma concentration, Median",[1]; [6],1220 ng/mL
same,"Plasma concentration, Mean",[1]; [7],4448 ng/mL
same,"Plasma concentration, Median",[1]; [7],4290 ng/mL
same,AUC,"[1]; 50 mg, MAD Cohort B, 50 mg BID (with food), Mean, read-out: AUCtau, Day 1",7300 ng·h/mL
same,Cmax,"[1]; 50 mg, MAD Cohort B, 50 mg BID (with food), Mean, read-out: Cmax, Day 1",806 ng/mL
same,Cmax,"[1]; 50 mg, MAD Cohort B, 50 mg BID (with food), Mean, read-out: Cmax, SS",2770 ng/mL
same,half-life,"[1]; 50 mg, MAD Cohort B, 50 mg BID (with food), Mean",1510 min
same,AUC,"[1]; 50 mg, MAD Cohort B, 50 mg BID (with food), individual subjects, read-out: AUCtau, Day 1",7430 ng·h/mL
same,Cmax,"[1]; 50 mg, MAD Cohort B, 50 mg BID (with food), individual subjects, read-out: Cmax, Day 1",933 ng/mL
same,Cmax,"[1]; 50 mg, MAD Cohort B, 50 mg BID (with food), individual subjects, read-out: Cmax, SS",2950 ng/mL
same,AUC,"[1]; 50 mg, MAD Cohort B, 50 mg BID (with food), steady state, Mean, read-out: AUC_TAU",28900 ng·h/mL
same,AUC,"[1]; 50 mg, MAD Cohort B, 50 mg BID (with food), steady state, individual subjects, read-out: AUC_TAU",29700 ng·h/mL
same,AUC,"[1]; 75 mg, MAD Cohort A, 75 mg BID (4 h fasting), Mean, read-out: AUCtau, Day 1",10400 ng·h/mL
same,Cmax,"[1]; 75 mg, MAD Cohort A, 75 mg BID (4 h fasting), Mean, read-out: Cmax, Day 1",1120 ng/mL
same,Cmax,"[1]; 75 mg, MAD Cohort A, 75 mg BID (4 h fasting), Mean, read-out: Cmax, SS",4050 ng/mL
same,half-life,"[1]; 75 mg, MAD Cohort A, 75 mg BID (4 h fasting), Mean",1280 min
same,AUC,"[1]; 75 mg, MAD Cohort A, 75 mg BID (4 h fasting), individual subjects, read-out: AUCtau, Day 1",10600 ng·h/mL
same,Cmax,"[1]; 75 mg, MAD Cohort A, 75 mg BID (4 h fasting), individual subjects, read-out: Cmax, Day 1",1060 ng/mL
same,Cmax,"[1]; 75 mg, MAD Cohort A, 75 mg BID (4 h fasting), individual subjects, read-out: Cmax, SS",4580 ng/mL
same,AUC,"[1]; 75 mg, MAD Cohort A, 75 mg BID (4 h fasting), steady state, Mean, read-out: AUC_TAU",41000 ng·h/mL
same,AUC,"[1]; 75 mg, MAD Cohort A, 75 mg BID (4 h fasting), steady state, individual subjects, read-out: AUC_TAU",46200 ng·h/mL
same,AUC,"[1]; 75 mg, MAD Cohort C, 75 mg BID (with food), Mean, read-out: AUCtau, Day 1",10600 ng·h/mL
same,Cmax,"[1]; 75 mg, MAD Cohort C, 75 mg BID (with food), Mean, read-out: Cmax, Day 1",1250 ng/mL
same,Cmax,"[1]; 75 mg, MAD Cohort C, 75 mg BID (with food), Mean, read-out: Cmax, SS",3940 ng/mL
same,half-life,"[1]; 75 mg, MAD Cohort C, 75 mg BID (with food), Mean",1320 min
same,Cmax,"[1]; 75 mg, MAD Cohort C, 75 mg BID (with food), individual subjects, read-out: Cmax, Day 1",1780 ng/mL
same,AUC,"[1]; 75 mg, MAD Cohort C, 75 mg BID (with food), steady state, Mean, read-out: AUC_TAU",40300 ng·h/mL
same,AUC,"[1]; 100 mg, MAD Cohort D, 100 mg BID (with food), Mean, read-out: AUCtau, Day 1",12900 ng·h/mL
same,Cmax,"[1]; 100 mg, MAD Cohort D, 100 mg BID (with food), Mean, read-out: Cmax, Day 1",1480 ng/mL
same,Cmax,"[1]; 100 mg, MAD Cohort D, 100 mg BID (with food), Mean, read-out: Cmax, SS",5680 ng/mL
same,half-life,"[1]; 100 mg, MAD Cohort D, 100 mg BID (with food), Mean",1380 min
same,AUC,"[1]; 100 mg, MAD Cohort D, 100 mg BID (with food), individual subjects, read-out: AUCtau, Day 1",11600 ng·h/mL
same,Cmax,"[1]; 100 mg, MAD Cohort D, 100 mg BID (with food), individual subjects, read-out: Cmax, Day 1",1560 ng/mL
same,Cmax,"[1]; 100 mg, MAD Cohort D, 100 mg BID (with food), individual subjects, read-out: Cmax, SS",5210 ng/mL
same,half-life,"[1]; 100 mg, MAD Cohort D, 100 mg BID (with food), individual subjects",1460 min
same,AUC,"[1]; 100 mg, MAD Cohort D, 100 mg BID (with food), steady state, Mean, read-out: AUC_TAU",60400 ng·h/mL
same,fraction unbound,"[2]; dog, Dog plasma, read-out: fup (Dog), unbound fraction in plasma",0.416
same,fraction unbound,"[2]; human, Human plasma, 0.1 to 10 μM, read-out: fup (Human), unbound fraction in plasma",0.144 to 0.164
same,fraction unbound,"[2]; human, read-out: fu, free fraction of Compound I in plasma",0.14 to 0.18

# Reference: patent US20220265629A1, “TREATMENT OF SYSTOLIC DYSFUNCTION AND HEART FAILURE WITH REDUCED EJECTION FRACTION WITH THE COMPOUND (R)-4-(1-((3-(DIFLUOROMETHYL)-1-METHYL-1H-PYRAZOL-4-YL)SULFONYL)-1-FLUOROETHYL)-N-(ISOXAZOL-3-YL)PIPERIDINE-1-CARBOXAMIDE” (MyoKardia, Inc., priority 2019, published 2022)
